In article PMC8044046 (European journal of medicinal chemistry, 2021):

Columns and labels:
Experiment in all cases: CellTiter Glo cell viability
Type in all cases: cell-based
[1] = tested on: MCF-7 (HER2−) cell line; conditions: read-out: IC50 (μM) MCF-7 (HER2−); antiproliferative activity, 72 h, N=3
[2] = tested on: BT-474 (HER2+) breast cancer cell line; conditions: read-out: IC50 (μM) BT-474 (HER2+); antiproliferative activity, 72 h, N=3, ±S.E
[3] = tested on: Calu-3 (HER2+) lung cancer cell line; conditions: read-out: IC50 (μM) Calu-3 (HER2+); antiproliferative activity, 72 h, N=3, ±S.E
[4] = tested on: A549 (HER2+) NSCLC cell line; conditions: read-out: IC50 (μM) A549 (HER2+); antiproliferative activity, 72 h, N=3, ±S.E

Measured: IC50

H2N-K(S-(3-amino-3(biphenyl)propionic acid)F-OH [Control]
> 100 µM: [1] | [2] | [3] | [4]
